Results reported in EP4813992A1, “POLYARYL DERIVATIVE AND USE THEREOF” (Hangzhou HealZen Therapeutics Co., Ltd., priority 2023, dated 2025).

Experiments:
HPK1 kinase [1] = target: T1, HPK1 kinase (Homo sapiens, UniProt Q92918); test: Lantha screen assay, inhibitory effect on HPK1 kinase; format: biochemical; conditions: initial compound concentration 1 µM
Procedure, shortened: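 Kinase pre-incubated with compound for 10 min at room temperature in 50 mM HEPES pH 7.5, 10 mM MgCl2, 4 mM DTT, 0.01% Tween-20, 0.01% BSA. Fluorescein-PKC substrate plus ATP then added for 90 min, stopped with antibody/EDTA for 60 min. Top concentration 1 µM; IC50 from four-parameter fit of inhibition vs log concentration.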

HPK1/GLK = test: Selectivity of degrading HPK1/GLK in Jurkat cells (Western blot, 24 h); format: cell-based; conditions: HPK1/GLK Fold = DC50 (HPK1) / DC50 (GLK)
Procedure: • 1) Cell plating: Cells are resuscitated, Jurkat cell lines in good growth condition are selected, and cells in the logarithmic growth phase are collected and counted; cell suspensions are seeded into 12 or 24-well plates (20W/well) and incubated overnight at 37°C in a 5% CO2 incubator. • 2) Preparation of compounds to be tested: The compounds to be tested are serially diluted with DMSO according to the experimental requirements and added to the corresponding cell wells, to be incubated at 37°C in a 5% CO2 incubator for 24 h. • 3) Preparation of samples: After the reaction of the compound to be tested is completed, the cells are collected in 1.5 mL EP tubes, and centrifuged at 1500 rpm for 5 min; after the supernatant is discarded, the cells are washed once with PBS, and the BCA protein is quantified and the concentration is adjusted. The adjusted samples are added to 5*loading buffer, boiled at 100°C for 10 minutes, and then the samples are loaded after the temperature is returned to room temperature. • 4) Detection of samples: Electrophoresis is performed using 10% SDS-PAGE with a sample loading volume of 10 µL/well. After the membrane transfer is completed, the samples are blocked with 5% skim milk at room temperature for 1 h. After the residual blocking solution is washed away with TBST, HPK1 and GLK antibodies are added for incubation overnight at 4°C. Washing is performed 3 more times with TBST on a shaker, 5 minutes each time. After washing is completed, the secondary antibody is added for incubation at room temperature in a shaker for 1 hour; then, washing is performed 3 more times with TBST on a shaker, 5 minutes each time; finally, the membrane is soaked in TBST and then subjected to chemiluminescence development. • 5) Data Processing: After the PVDF membrane is developed, the data are exported and plotted using Imang J, and the gray values of the protein bands are analyzed using Image J software; the DC50 curve is fitted using Graphpad Prism 9 software to obtain the results of the selectivity of the compound in degrading HPK1/GLK: HPK1/GLK Fold = DC50 (HPK1) / DC50 (GLK) . Table 3 Selectivity of the compounds of the invention in degrading HPK1/GLK

[2] = Pharmacokinetic properties in SD rats after gavage; format: in vivo; conditions: rat, po, 10 mg/kg, plasma
Procedure: The test compound is administered to SD rats by gavage at a dose of 10 mg/kg. Blood samples are collected at 0 h (before administration) and at 0.083, 0.25, 1, 2, 4, 6, 8, and 24 h after oral gavage administration. The samples are placed in anticoagulant tubes containing heparin sodium, and the mixture is thoroughly vortexed and centrifuged at 6000 rpm for 3 minutes. Plasma concentrations are determined by LC-MS/MS, and relevant pharmacokinetic parameters are calculated using Phoenix WinNonlin 8.2.0 pharmacokinetic software. Table 4 Pharmacokinetic properties of the compounds of the invention

HPK1 kinase [3] = target: T1, HPK1 kinase; test: Activity of degrading HPK1 in Jurkat cells (Western blot, 24 h); format: cell-based; design: endogenous in cells; host or cells: Jurkat; conditions: HPK1 protein degradation, class symbols
Procedure: The adjusted samples are added to 5*loading buffer, boiled at 100°C for 10 minutes, and then the samples are loaded after the temperature is returned to room temperature. • 4) Detection of samples: Electrophoresis is performed using 10% SDS-PAGE with a sample loading volume of 8 µL/well. After the membrane transfer is completed, the samples are blocked with 5% BSA at room temperature for 1 h. After the residual blocking solution is washed away with TBST, HPK1 and GAPDH antibodies are added for incubation overnight at 4°C. Washing is performed 3 more times with TBST on a shaker, 10 minutes each time. After washing is completed, the secondary antibody is added for incubation at room temperature for 1 hour; then, washing is performed 3 more times with TBST on a shaker, 10 minutes each time; finally, ECL exposure solution is used to develop and image the bands to detect changes in HPK1 protein.

T1 sequence (Q92918 whole entry): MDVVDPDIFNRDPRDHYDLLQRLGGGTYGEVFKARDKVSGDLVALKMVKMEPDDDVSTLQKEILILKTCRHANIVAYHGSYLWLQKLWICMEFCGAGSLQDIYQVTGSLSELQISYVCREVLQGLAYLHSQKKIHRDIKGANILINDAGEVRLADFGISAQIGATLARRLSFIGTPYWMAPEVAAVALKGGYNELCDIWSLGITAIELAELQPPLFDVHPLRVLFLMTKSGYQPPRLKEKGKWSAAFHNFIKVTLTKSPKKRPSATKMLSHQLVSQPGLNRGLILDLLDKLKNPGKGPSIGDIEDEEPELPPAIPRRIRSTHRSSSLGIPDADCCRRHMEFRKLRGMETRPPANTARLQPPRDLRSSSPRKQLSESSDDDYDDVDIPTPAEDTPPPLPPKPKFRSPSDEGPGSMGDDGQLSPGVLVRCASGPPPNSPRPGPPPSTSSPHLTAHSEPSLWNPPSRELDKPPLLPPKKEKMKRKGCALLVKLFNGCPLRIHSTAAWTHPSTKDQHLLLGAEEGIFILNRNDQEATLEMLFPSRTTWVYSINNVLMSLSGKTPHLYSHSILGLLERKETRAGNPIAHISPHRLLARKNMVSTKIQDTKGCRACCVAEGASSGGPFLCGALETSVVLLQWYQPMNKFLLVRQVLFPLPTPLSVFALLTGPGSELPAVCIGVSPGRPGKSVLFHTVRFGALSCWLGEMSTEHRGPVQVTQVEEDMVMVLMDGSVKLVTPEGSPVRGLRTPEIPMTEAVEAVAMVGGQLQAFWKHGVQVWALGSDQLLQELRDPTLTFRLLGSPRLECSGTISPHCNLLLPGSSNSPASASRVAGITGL

Row | SMILES | IC50 (HPK1 kinase [1]) [nM] | HPK1/GLK Fold (HPK1/GLK) | AUC [2] [ng·h/mL] | DC50 (HPK1 kinase [3]) [nM]
1 | Cc1cc(-c2cnc3[nH]cc(-c4ccc(C(=O)N(C)C)cc4)c3n2)cc(C)c1C1=CCN(CC2CN(c3ccc(N4CCC(=O)NC4=O)c(F)c3)C2)CC1 [compound 049] | < 10 | ++++ (1000≤Fold) | 9570 | < 10
2 | Cc1cc(-c2cnc3[nH]cc(-c4cnn5c4CCC5)c3n2)cc(C)c1C1=CCN(CC2CN(c3ccc(N4CCC(=O)NC4=O)c(F)c3)C2)CC1 [compound 170] | < 10 | ++++ (1000≤Fold) | 12700 | < 10
3 | Cc1cc(-c2cnc3[nH]cc(-c4ccc(C(=O)N(C)C)cc4)c3n2)cc(C)c1C1=CCN(CC2CN(c3ccc(C(=O)NC4CCC(=O)NC4=O)nc3)C2)CC1 (centres unmarked) [compound 016] | < 10 | ++++ (1000≤Fold) | 5000 | < 10
4 | COc1cc(-c2cnc3[nH]cc(-c4ccc(C(=O)N(C)C)cc4)c3n2)ccc1C1=CCN(CC2CN(c3ccc(N4CCC(=O)NC4=O)c(C)c3)C2)CC1 [compound 135] | < 10 | ++++ (1000≤Fold) | 5480 | < 10
5 | Cc1cc(-c2cnc3[nH]cc(-c4ccc(C(=O)N(C)C)cc4)c3n2)cc(C)c1C1=CCN(CC#Cc2cccc3c(C4CCC(=O)NC4=O)coc23)CC1 (centres unmarked) [compound 024] | < 10 | ++++ (1000≤Fold) | 12000 | < 10
6 | Cc1cc(-c2cnc3[nH]cc(-c4ccc(C(=O)N(C)C)cc4)c3n2)cc(C)c1C1=CCN(CC2CN(c3cnn(C4CCC(=O)NC4=O)c(=O)c3)C2)CC1 (centres unmarked) [compound 085] | < 10 | ++++ (1000≤Fold) | 8530 | < 10
7 | Cc1cc(N2CC(CN3CC=C(c4c(C)cc(-c5cnc6[nH]cc(-c7ccc(C(=O)N(C)C)cc7)c6n5)cc4C)CC3)C2)ccc1N1CCC(=O)NC1=O [compound 014] | < 10 | ++++ (1000≤Fold) | 11400 | < 10
8 | Cc1cc(-c2cnc3[nH]cc(-c4ccc(C(=O)N(C)C)cc4)c3c2)cc(C)c1C1=CCN(CC2CN(c3ccc(N4CCC(=O)NC4=O)c(F)c3)C2)CC1 [compound 144] | < 10 | ++++ (1000≤Fold) | 5750 | < 10
